The values that follow come from patent US20210261569A1, “FUSED HETEROCYCLIC DERIVATIVES HAVING SELECTIVE BACE1 INHIBITORY ACTIVITY” (Shionogi & Co., Ltd., priority 2018, published 2021).

By IC50 is commonly meant the midpoint of a concentration-inhibition curve.

The target of data set [1] is T1, recombinant BACE2 protein (Homo sapiens, UniProt Q9Y5Z0).
T1 construct: recombinant BACE2 protein in a final concentration of 0.4 μg/mL
T1 sequence (Q9Y5Z0 63-518): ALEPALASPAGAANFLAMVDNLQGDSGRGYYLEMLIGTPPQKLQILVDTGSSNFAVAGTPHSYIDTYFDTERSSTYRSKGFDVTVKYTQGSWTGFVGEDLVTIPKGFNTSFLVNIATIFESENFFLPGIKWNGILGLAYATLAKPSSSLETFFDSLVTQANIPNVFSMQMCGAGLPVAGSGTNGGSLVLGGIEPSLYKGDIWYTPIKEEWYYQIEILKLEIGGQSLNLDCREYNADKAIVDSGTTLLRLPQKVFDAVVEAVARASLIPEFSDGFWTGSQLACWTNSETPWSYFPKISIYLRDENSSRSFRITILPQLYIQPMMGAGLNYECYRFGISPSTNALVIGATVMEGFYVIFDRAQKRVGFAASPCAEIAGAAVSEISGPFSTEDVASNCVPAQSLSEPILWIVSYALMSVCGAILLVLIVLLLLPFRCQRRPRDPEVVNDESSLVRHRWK
Put plainly: BACE2 biochemical FRET based assay. As to conditions: pH 5.0, 450 min at room temperature. The text has this: This assay is a Fluorescence Resonance Energy Transfer Assay (FRET) based assay. The substrate for this assay contains the ‘Swedish’ Lys-Met/Asn-Leu mutation of the amyloid precursor protein (APP) beta-secretase cleavage site. This substrate also contains two fluorophores: (7-methoxycoumarin-4-yl) acetic acid (Mca) is a fluorescent donor with excitation wavelength at 320 nm and emission at 405 nm and 2,4-dinitrophenol (Dnp) is a proprietary quencher acceptor. […] Upon cleavage by the beta-secretase, the fluorophore Mca is separated from the quenching group Dnp, restoring the full fluorescence yield of the donor. The increase in fluorescence is linearly related to the rate of proteolysis.
Briefly in a 384-well format recombinant BACE2 protein in a final concentration of 0.4 μg/mL was incubated for 450 minutes at room temperature with 10 μM substrate in incubation buffer (final concentrations: 33.3 mM Citrate buffer pH 5.0, 0.033% PEG, 2% DMSO) in the absence or presence of compound. Next the amount of proteolysis was directly measured by fluorescence measurement at T=0 and T=450 (excitation at 320 nm and emission at 405 nm). Results were expressed in RFU (Relative Fluorescence Units), as difference between T450 and T0.
A best-fit curve was fitted by a minimum sum of squares method to the plot of % Controlmin versus compound concentration. From this an IC50 value (inhibitory concentration causing 50% inhibition of activity) can be obtained.

Data set [2] has as its target T2, human ether-a-go-go related gene (hERG) channel (Homo sapiens, UniProt Q12809).
T2 construct: expressed in transfected cells; host or cells: CHO cells
Kind of data set: hERG test (whole cell patch clamp, QPatch). It counts as cell-based. Conditions: CHO cells expressing hERG, tail peak current. The text has this:
For the purpose of assessing risk of an electrocardiogram QT interval prolongation, effects on delayed rectifier K+ current (IKr), which plays an important role in the ventricular repolarization process of the compound of the present invention, was studied using CHO cells expressing human ether-a-go-go related gene (hERG) channel.
A cell was retained at a membrane potential of −80 mV by whole cell patch clamp method using an automated patch clamp system (QPatch; Sophion Bioscience A/S). After application of leak potential at −50 mV, IKr induced by depolarization pulse stimulation at +20 mV for 2 seconds and, further, repolarization pulse stimulation at −50 mV for 2 seconds was recorded.
After the generated current was stabilized, extracellular solution (NaCl: 145 mmol/L, KCl: 4 mmol/L, CaCl2:2 mmol/L MgCl2:1 mmol/L, 1 mmol/L, HEPES (4-(2-hydroxyethyl)-1-piperazineethanesulfonic acid: 10 mmol/L, glucose:10 mmol/L pH=7.4) in which the compound of the present invention have been dissolved at an objective concentration was applied to the cell under the room temperature condition for 10 minutes. From the recording IKr, an absolute value of the tail peak current was measured based on the current value at the resting membrane potential using an analysis software (QPatch assay software; Sophion Bioscience A/S). Further, the % inhibition relative to the tail peak current before application of the compound of the present invention was calculated, and compared with the vehicle-applied group (0.1% dimethyl sulfoxide solution) to assess influence of the compound of the present invention on IKr.

Data set [3] concerns the target T3, P-gp (MDR1 expressing LLC-PK1 cells) (Homo sapiens, UniProt P08183).
T3 construct: host or cells: LLC-PK1 (porcine kidney) cells
Kind of data set: P-gp substrate test. It counts as in vitro ADME. As to conditions: MDR1 expressing LLC-PK1 cells vs parent LLC-PK1 cells. The method, then: 1. MDR1 expressing LLC-PK1 cells and its parent cells were routinely cultured in Medium A (Medium 199 (Invitrogen) supplemented with 10% FBS (Invitrogen), gentamycin (0.05 mg/mL, Invitrogen) and hygromycin B (100 μg/mL, Invitrogen)) at 37° C. under 5% CO2/95% 02 gasses. For the transport experiments, these cells were seeded on Transwell (Registered trademark) insert (96-well, pore size: 0.4 μm, Coaster) at a density of 1.4×10^4 cells/insert and added Medium B (Medium 199 supplemented with 10% FBS and gentamycin at 0.05 mg/mL) to the feeder tray. These cells were incubated in a CO2 incubator (5% CO2/95% 02 gasses, 37° C.) and replace apical and basolateral culture medium every 48-72 hr after seeding. These cells were used between 4 and 6 days after seeding. 2. The medium in the culture insert seeded with MDR1 expressing cells or parent cells were removed by aspiration and rinsed by HBSS. The apical side (140 μL) or basolateral side (175 μL) was replaced with transport buffer containing reference substrates and the present invention and then an aliquot (50 μL) of transport buffer in the donor side was collected to estimate initial concentration of reference substrate and the present invention. After incubation for designed time at 37° C., an aliquot (50 μL) of transport buffer in the donor and receiver side were collected. Assay was performed by duplicate or triplicate. 3. Reference substrate and the present invention in the aliquot was quantified by LC/MS/MS.
Permeated amounts across monolayers of MDR1 expressing and parent cells were determined, and permeation coefficients (Pe) were calculated using Excel 2003 from the following equitation:
Pe (cm/sec)=Permeated amount (pmol)/area of cell membrane (cm^2)/initial concentration (nM)/incubation time (sec) Where, permeated amount was calculated from permeation concentration (nM, concentration of the receiver side) of the substance after incubation for the defined time (sec) multiplied by volume. (mL) and area of cell membrane was used 0.1433 (cm2). The efflux ratio was calculated using the following equation:
Efflux Ratio=Basolateral-to-Apical Pe/Apical-to-Basolateral Pe
The net flux was calculated using the following equation:
Net flux=Efflux Ratio in MDR1 expressing cells/Efflux Ratio in parent cells

T2 sequence (Q12809 whole entry): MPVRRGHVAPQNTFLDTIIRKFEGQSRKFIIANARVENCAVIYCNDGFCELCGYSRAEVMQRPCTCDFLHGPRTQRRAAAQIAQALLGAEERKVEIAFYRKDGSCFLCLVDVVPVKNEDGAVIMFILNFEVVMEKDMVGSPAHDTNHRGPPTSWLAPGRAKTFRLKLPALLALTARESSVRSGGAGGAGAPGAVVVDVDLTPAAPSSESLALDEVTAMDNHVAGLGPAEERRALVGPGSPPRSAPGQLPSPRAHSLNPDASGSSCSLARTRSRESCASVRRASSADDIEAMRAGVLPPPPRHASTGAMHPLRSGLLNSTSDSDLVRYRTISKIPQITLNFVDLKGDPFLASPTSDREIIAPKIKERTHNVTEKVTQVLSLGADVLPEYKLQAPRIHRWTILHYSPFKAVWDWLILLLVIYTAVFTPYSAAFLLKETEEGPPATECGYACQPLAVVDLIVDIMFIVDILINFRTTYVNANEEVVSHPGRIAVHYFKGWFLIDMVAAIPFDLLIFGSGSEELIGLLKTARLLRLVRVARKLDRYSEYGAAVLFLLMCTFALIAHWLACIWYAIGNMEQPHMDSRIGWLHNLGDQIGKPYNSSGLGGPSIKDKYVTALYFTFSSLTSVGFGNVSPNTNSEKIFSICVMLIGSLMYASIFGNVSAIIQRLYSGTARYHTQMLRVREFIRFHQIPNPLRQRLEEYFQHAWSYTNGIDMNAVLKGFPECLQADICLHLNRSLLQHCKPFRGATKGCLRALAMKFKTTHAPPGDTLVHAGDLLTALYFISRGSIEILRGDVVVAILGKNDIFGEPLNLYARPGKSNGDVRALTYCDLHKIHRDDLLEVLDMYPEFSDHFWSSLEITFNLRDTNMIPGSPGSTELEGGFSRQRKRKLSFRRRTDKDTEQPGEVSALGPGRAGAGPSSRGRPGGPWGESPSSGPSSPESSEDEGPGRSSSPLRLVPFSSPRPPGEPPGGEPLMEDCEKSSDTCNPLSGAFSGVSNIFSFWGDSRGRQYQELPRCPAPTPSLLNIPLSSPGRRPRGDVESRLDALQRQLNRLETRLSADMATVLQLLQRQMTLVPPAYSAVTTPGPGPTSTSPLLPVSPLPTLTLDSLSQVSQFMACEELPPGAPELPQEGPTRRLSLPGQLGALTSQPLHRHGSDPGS
T3 sequence (P08183 whole entry): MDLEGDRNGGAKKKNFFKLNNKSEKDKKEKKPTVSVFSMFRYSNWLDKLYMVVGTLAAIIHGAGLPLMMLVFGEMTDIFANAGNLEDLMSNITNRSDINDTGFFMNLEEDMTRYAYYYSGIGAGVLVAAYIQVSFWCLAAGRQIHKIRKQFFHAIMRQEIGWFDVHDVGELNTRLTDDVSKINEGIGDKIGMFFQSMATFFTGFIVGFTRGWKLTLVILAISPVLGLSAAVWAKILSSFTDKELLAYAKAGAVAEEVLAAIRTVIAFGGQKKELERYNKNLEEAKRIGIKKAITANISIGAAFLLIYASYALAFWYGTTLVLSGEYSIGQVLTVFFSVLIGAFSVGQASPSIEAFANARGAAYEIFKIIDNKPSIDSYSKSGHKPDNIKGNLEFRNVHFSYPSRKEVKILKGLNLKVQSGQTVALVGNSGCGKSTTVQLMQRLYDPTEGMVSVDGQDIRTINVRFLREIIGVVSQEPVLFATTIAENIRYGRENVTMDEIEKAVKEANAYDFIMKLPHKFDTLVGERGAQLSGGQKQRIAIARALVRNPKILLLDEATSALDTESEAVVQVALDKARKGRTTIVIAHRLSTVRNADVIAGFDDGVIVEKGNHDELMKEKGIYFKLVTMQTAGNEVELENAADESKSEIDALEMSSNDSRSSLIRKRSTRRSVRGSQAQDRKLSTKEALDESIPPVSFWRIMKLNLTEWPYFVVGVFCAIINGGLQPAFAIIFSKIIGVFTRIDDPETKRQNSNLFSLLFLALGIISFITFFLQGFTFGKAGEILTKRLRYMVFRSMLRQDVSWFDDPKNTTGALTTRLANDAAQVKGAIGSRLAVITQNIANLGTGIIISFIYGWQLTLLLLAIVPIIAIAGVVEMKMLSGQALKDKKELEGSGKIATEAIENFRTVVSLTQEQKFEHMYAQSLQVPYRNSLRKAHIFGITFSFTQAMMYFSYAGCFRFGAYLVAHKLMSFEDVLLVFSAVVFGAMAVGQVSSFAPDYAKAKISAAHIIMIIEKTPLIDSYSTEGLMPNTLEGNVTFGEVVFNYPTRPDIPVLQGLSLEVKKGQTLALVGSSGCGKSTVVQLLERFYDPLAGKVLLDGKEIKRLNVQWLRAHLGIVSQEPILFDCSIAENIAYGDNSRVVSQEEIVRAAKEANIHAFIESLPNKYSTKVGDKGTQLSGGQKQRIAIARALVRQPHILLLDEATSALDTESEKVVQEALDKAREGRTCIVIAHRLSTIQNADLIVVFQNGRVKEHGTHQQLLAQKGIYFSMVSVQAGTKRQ

With `C[C@@H]1OC[C@H]2[C@@H]1OC(N)=N[C@]2(CF)c1cc(NC(=O)c2cnc(OCF)cn2)ccc1F` [Compound I-082], the IC50 in data set [1] is 309 nM. Moreover, the “hERG inhibition (%) at 3 μM” value in data set [2] came out at 6.7%. Moreover, in data set [3], the “P-gp ER ratio” value came out at 3.6.
For the compound `NC1=N[C@](CF)(c2cc(NC(=O)c3cnc(OCF)cn3)ccc2F)[C@H]2[C@H](CC(F)F)OC[C@H]2O1` [Compound I-116], the IC50 in data set [1] was 389 nM. In addition, the “hERG inhibition (%) at 3 μM” value in data set [2] amounted to 33.9%. Moreover, in data set [3], the “P-gp ER ratio” value is listed as 5.2.
